Data published in patent US11981944B2, “Immunogenic arginase peptides” (IO Biotech ApS, priority 2016, dated 2024).

Key:
[1] = test system: peripheral blood mononuclear cells (PBMC); assay: IFN-gamma ELISPOT secretion assay on PBMC (Example 1); format: cell-based, human; settings: for immune responses against overlapping 20mer peptides: PBMC from three cancer patients, FIG. 3
[2] = test system: T2-cells loaded with peptide; assay: 51Cr-release assay for CTL-mediated cytotoxicity; format: cell-based, human; settings: standard chromium release assay; FIG. 5
Method: Conventional ^51Cr-release assays for CTL-mediated cytotoxicity were carried out as described elsewhere. Target cells were T2-cells (ATCC), HLA-A2^+ melanoma cell lines (FM3 and FM93)
In this experiment Arginase specific T cells were incubated 4 h with either Cr-labeled melanoma cell lines FM3 or FM93 at different effector:target ratios. Both cell lines express intracellular Arginase.

[3] = test system: TILs from eight melanoma patients; assay: Intracellular staining for IFNγ and TNFα release in melanoma TILs; format: cell-based, human; settings: for IFNγ or TNFα release from CD8+ T cells: TILs; for IFNγ or TNFα release from CD8+ T cells / IFNγ release from CD4+ T cells: 5 h peptide stimulation; for IFNγ release from CD4+ T cells: one of the TIL cultures, FIG. 10A
Method: Flow cytometry analysis was performed on a FACSCantoTM II (BD Biosciences, San Jose CA, USA). Intracellular staining of cell cultures was performed after the cells were stimulated with 20-mere peptides for 5 hours or 30-mere peptides for 8h (BD GolgiPlugTM cat. 555029, was added after the first hour). The cells were then stained for surface markers, then washed and permeabilized by using Fixation/Permeabilization and Permeabilization Buffer (eBioscience, cat. 00-5123-43), according to manufacturer's instructions. Antibodies used: IFNγ-APC (cat. 341117), TNFα-BV421 (cat. 562783), CD4-FITC (cat. 347413), CD8-PerCP (cat. 345774) (all from BD Biosciences). Dead cells were stained using FVS510 (564406, BD Biosciences) according to manufacturer's instructions. To investigate the potential presence of arginase-specific T cells among tumor-infiltrating lymphocytes in cancer, we screened TILs from eight melanoma patients for responses against arginase-1 derived peptides. To this end, we performed intracellular staining for IFNγ and TNFα release in response to peptide stimulation. TILs were thawed and rested overnight without IL-2, and then stimulated for 5 h with three hot-spot immunogenic region 20-mer peptides (peptides labelled by reference to start and end position): […]-200). […] The percentage of IFNγ-producing cells was higher for […]-190) and […]-200) compared to […]-180), and the response against […]-200) was almost twice that against […]-180).

[4] = test system: PBMCs from healthy donors or cancer patients; assay: IFNγ ELISPOT on PBMCs after one week peptide and IL-2 stimulation (Example 2); format: cell-based, human; settings: for spontaneous IFNγ ELISPOT responses against 20-mer library peptides: cancer (melanoma) patient PBMCs, FIG. 9A
Method: PBMCs from healthy donors or cancer patients were stimulated with 80 μg of arginase-derived peptides and 120 U/ml IL-2 (Peprotech, London, UK, cat. 200-02) for a week. 4-6×10^5 PBMCs were then placed in the bottom of ELISPOT plate (nitrocellulose bottomed 96-well plates by MultiScreen MAIP […]; Millipore, cat. MSIPN4W50) pre-coated with IFN-y capture Ab (Mabtech, cat. 3420-3-1000) and 1-10 μg of arginase derived peptides were added. PBMCs from each patient and donors were set up in duplicates or triplicates for peptide and control stimulations. Cells were incubated in ELISPOT plates in the presence of an antigen for 14-16 hours after which they are washed off and secondary biotinylated Ab (Mabtech, cat. 3420-6-1000) was added. After 2 h incubation unbound secondary antibody was washed off and streptavidin conjugated alkaline phosphatase (AP) (Mabtech, cat. 3310-10) was added for 1 h. Next, unbound conjugated enzyme is washed off and the assay is developed by adding BCIP/NBT substrate (Mabtech, cat. 3650-10). Developed ELISPOT plates were analysed on CTL ImmunoSpot S6 Ultimate-V analyzer using Immunospot software v5.1. Responses were calculated as the difference between average numbers of spots in wells stimulated with Arginase-1 peptides and control wells. We divided the entire arginase-1 protein sequence into overlapping 20-amino-acid-long peptides, generating a library of 31 peptides covering the whole sequence (SEQ ID NOs 18-48)). Each peptide in the library overlapped with the first 10 amino acids of the following peptide. Using this arginase peptide library and the IFNγ ELISPOT assay, we next screened PBMCs from melanoma patients and healthy donors for spontaneous responses (FIGS. 9A and 9B). The PBMCs were stimulated for one week with a pool of 3-4 adjacent 20-mer arginase library peptides and low-dose IL-2 (120 U/mL). They were then set up for an IFNγ ELISPOT assay to screen for responses against each 20-mer peptide separately. […] Among these overlapping peptides, […]-200), and Arg(191-210) spanned a 50-amino-acid-long region that was deemed a hot-spot region since nearly all patients harbored a response against one or more of these peptides (FIG. 9A). The selected eight peptides were further used to screen for spontaneous immune responses against arginase-1 in PBMCs from eight healthy donors using IFNγ ELISPOT. […] Since we most frequently observed responses against arginase-1 peptides from the hot-spot region, we next analyzed whether longer peptides covering the same sequence could be used instead of four 20-mers. […] We then divided the arginase-1 hot-spot region into two 30-mer peptides that overlapped by 10 amino acids (peptides labelled by reference to start and end position): […]-190) and […]-210). These 30-mer peptides were used to check for responses in selected PBMCs from cancer patients and healthy donors, which had previously shown responses against the 20-mer hot-spot peptides. The PBMCs were stimulated for one week with either […]-190) or […]-210) in the presence of IL-2, and were then used in IFNγ ELISPOT.

[5] = test system: CT26.WT colon cancer cells; assay: Tumor vaccination of Balb/c mice bearing CT26.WT tumors; format: in vivo, mouse; settings: for tumor growth relative to vaccination with control peptide: vaccination day6 and day 13, FIG. 16
[6] = test system: C57BL/6 and Balb/c mice; assay: Peptide vaccination of mice and IFNgamma ELISPOT of spleen or dLN cells; format: in vivo, mouse; settings: 100 μg peptide s.c. day0 and day7
Method: Animals were vaccinated subcutaneously with 100 μg peptide in DMSO/H2O in a 1:1 emulsion with incomplete Freund's adjuvant (IFA) or montanide. IFA+DMSO/H2O served as a control vaccine. Vaccinations were carried out on day0 and day7. For subsequent analysis of the immune response to specific peptides, mice were sacrificed on day 14 and spleen and draining lymph nodes (dLNs) were harvested.
Murine immune cells were subjected to ELISPOT analysis. Single cell suspension was prepared from spleen or dLNs by passage through a cell strainer. After lysis of red blood cells, 0.9×10E6 cells/well were seeded into ELISPOT plates coated with anti-IFNgamma antibody. Peptide of interest was added to designated wells and cells were incubated o/n with peptide. The next day, cells were removed, plates washed and incubated with biotinylated detection antibody. Finally, after addition of Streptavidin-ALP and substrate visible spots appear. Each spot corresponds to an individual IFNgamma producing cell. Plates were analysed in an Immunospot analyser and plotted as spots/0.9×10E6 cells minus background (i.e. minus number of spots in corresponding unstimulated (no peptide) wells).

[7] = test system: arginase-specific CD4+ T-cell culture; assay: Recognition by arginase-specific CD4+ T-cell culture (ArgShort-stimulated); format: cell-based, human; settings: IFNγ ELISPOT and intracellular staining; FIG. 11C
Method: PBMCs from healthy donors or cancer patients were stimulated with 80 μg of arginase-derived peptides and 120 U/ml IL-2 (Peprotech, London, UK, cat. 200-02) for a week. 4-6×10^5 PBMCs were then placed in the bottom of ELISPOT plate (nitrocellulose bottomed 96-well plates by MultiScreen MAIP N45; Millipore, cat. MSIPN4W50) pre-coated with IFN-y capture Ab (Mabtech, cat. 3420-3-1000) and 1-10 μg of arginase derived peptides were added. PBMCs from each patient and donors were set up in duplicates or triplicates for peptide and control stimulations. Cells were incubated in ELISPOT plates in the presence of an antigen for 14-16 hours after which they are washed off and secondary biotinylated Ab (Mabtech, cat. 3420-6-1000) was added. After 2 h incubation unbound secondary antibody was washed off and streptavidin conjugated alkaline phosphatase (AP) (Mabtech, cat. 3310-10) was added for 1 h. Next, unbound conjugated enzyme is washed off and the assay is developed by adding BCIP/NBT substrate (Mabtech, cat. 3650-10). Developed ELISPOT plates were analysed on CTL ImmunoSpot S6 Ultimate-V analyzer using Immunospot software v5.1. Responses were calculated as the difference between average numbers of spots in wells stimulated with Arginase-1 peptides and control wells.
Arginase-specific T cell culture were established by stimulation of cancer patient PBMC with irradiated ArgShort (SEQ ID NO 9) peptide-loaded autologous DC or PBMCs. The following day IL-7 and IL-12 (PeproTech, London, UK, cat. 200-07-10 and 200-12) were added. Stimulation of the cultures were carried out every 8 days with ArgShort peptide loaded irradiated autologous DC followed by ArgShort peptide-loaded irradiated autologous PBMC. The day after peptide stimulation IL-2 […]. After 5 stimulations arginase-specific T cells were enriched using TNF-α cell enrichment kit (MiltenyiBiotec, cat. 130-091-269).
Flow cytometry analysis was performed on a FACSCanto™ II (BD Biosciences, San Jose CA, USA). […]

[8] = CD4+ T cells in TILs, 5 h stimulation

## IVYIGLRDV (Peptide fragment of human Arginase 1) [Arg8, positions 174-182 of human Arginase 1]
[1]; IFN-gamma ELISPOT, PBMC from six melanoma patients, FIG. 1
  specific T-cell responses against Arg-derived peptide: Strong responses
[1]; PBMC from 6 cancer patients, specific cells/3×10e5 cells, FIG. 2
  Immune responses against Arg 8 peptide: Very strong responses were frequently detected
[2]
  killing of peptide-loaded target cells by CD8 positive culture: can kill target cells loaded with Arg8

## GFSWVTPCISAKDIVYIGLR (Peptide fragment of human Arginase 1) [Arg1-17, positions 161-180 of human Arginase 1; murine region identical]
[3]
  IFNγ or TNFα release from CD8+ T cells: No IFNγ or TNFα release was observed
  IFNγ release from CD4+ T cells: IFNγ was released from CD4+ T cells
[1]
  immune responses against overlapping 20mer peptides: Frequent immune responses were detected
[4]
  spontaneous IFNγ ELISPOT responses against 20-mer library peptides: highest and most abundant responses
[5]
  tumor growth relative to vaccination with control peptide: inhibit tumor growth
[6]; Balb/c mice, FIG. 15
  immunogenicity (peptide specific IFNgamma ELISPOT response): immunogenic
[6]; C57BL/6 mice, FIG. 14
  immunogenicity (peptide specific IFNgamma ELISPOT response): immunogenic

## GFSWVTPCISAKDIVYIGLRDVDPGEHYILKTLGIKYFSMTEVDRLGIGK (Peptide fragment of human Arginase 1) [50-mer peptide, 50-mer covering the entire hot-spot region, positions 161-210 of human Arginase 1]
[7]
  recognition by T-cell culture specific against the minimal arginase epitope: not recognized
[4]; selected PBMCs from cancer patients and healthy donors, one week stimulation with IL-2, FIG. 10B, 10C
  IFNγ ELISPOT responses against longer hot-spot peptides: lower responses compared to the 20-mer peptides

## DVDPGEHYILKTLGIKYFSM (Peptide frgment of human Arginase 1) [Arg1-19, positions 181-200 of human Arginase 1]
[3]; [8]
  percentage of IFNγ-producing cells compared to Arg(161-180): higher
  response relative to that against Arg(161-180): almost twice that against Arg(161-180)
[3]
  IFNγ or TNFα release from CD8+ T cells: No IFNγ or TNFα release was observed
  IFNγ release from CD4+ T cells: IFNγ was released from CD4+ T cells
[1]
  immune responses against overlapping 20mer peptides: Frequent immune responses were detected
[4]
  spontaneous IFNγ ELISPOT responses against 20-mer library peptides: highest and most abundant responses
[5]
  size of the tumor growth effect among the tested peptides: most noticeable
  tumor growth relative to vaccination with control peptide: inhibit tumor growth
[6]; Balb/c mice, FIG. 15
  immunogenicity (peptide specific IFNgamma ELISPOT response): immunogenic
[6]; C57BL/6 mice, FIG. 14
  immunogenicity (peptide specific IFNgamma ELISPOT response): immunogenic

## KDIVYIGL (Peptide fragment of human Arginase 1) [mARG1, positions 172-179 of human Arginase 1; murine region identical]
[6]; C57BL/6 mice, FIG. 14
  immunogenicity (peptide specific IFNgamma ELISPOT response): immunogenic

## KTLGIKYFSMTEVDKLGIGK (Peptide fragment of murine Arginase 1) [mARG20, positions 191-210 of murine Arginase 1]
[5]
  size of the tumor growth effect among the tested peptides: most noticeable
  tumor growth relative to vaccination with control peptide: inhibit tumor growth
[6]; Balb/c mice, FIG. 15
  immunogenicity (peptide specific IFNgamma ELISPOT response): immunogenic
[6]; C57BL/6 mice, FIG. 14
  immunogenicity (peptide specific IFNgamma ELISPOT response): immunogenic

## LGIKYFSM (Peptide fragment of human Arginase 1) [mARG2, positions 193-200 of human Arginase 1; murine region identical]
[6]; Balb/c mice, FIG. 15
  immunogenicity (peptide specific IFNgamma ELISPOT response): not immunogenic
[6]; C57BL/6 mice, FIG. 14
  immunogenicity (peptide specific IFNgamma ELISPOT response): not immunogenic
